Data: US10370356B2, “Pyridinone dicarboxamide for use as bromodomain inhibitors” (GlaxoSmithKline Intellectual Property (No. 2) Limited, priority 2015, dated 2019)
Counter-ions that a name gives are not always drawn. Like-named read-outs stand apart in the source and are kept apart here.

Molecular target: T1, BRD4 BD2 (Homo sapiens, UniProt O60885, Y97A)
T1 construct: BRD4 (1-477) (Y97A) and (Y390A); made in house; host or cells: E. coli (pET15b vector)
Test: BRD4 BD2 mutant TR-FRET competition assay
Format: binding

[1] = read-out: pIC50 in the BRD4 BD2 assay (converted)
[2] = average of N recorded values, read-out: BRD4 BD2 IC50 (average value) (converted)

SMILES	IC50 [1]	IC50 [2]
CNC(=O)c1cc(C(=O)NC2CN(C(=O)OC(C)(C)C)C2)cn(Cc2ccccc2)c1=O [Example 4, tert-Butyl 3-(1-benzyl-5-(methylcarbamoyl)-6-oxo-1,6-dihydropyridine-3-carboxamido)azetidine-1-carboxylate]	100 to 1000 nM	–
CNC(=O)c1cc(C(=O)NCCCC2CCNCC2)cn(Cc2ccccc2F)c1=O [Example 14, 1-(2-Fluorobenzyl)-N^3-methyl-2-oxo-N^5-(3-(piperidin-4-yl)propyl)-1,2-dihydropyridine-3,5-dicarboxamide]	≤ 100 nM	–
CNC(=O)c1cc(C(=O)NCCCC2CCNCC2)cn(Cc2cccc(C)c2)c1=O [Example 15, N^3-Methyl-1-(3-methylbenzyl)-2-oxo-N^5-(3-(piperidin-4-yl)propyl)-1,2-dihydropyridine-3,5-dicarboxamide]	≤ 100 nM	–
CNC(=O)c1cc(C(=O)NCCC2CCNCC2)cn(Cc2cccc(C)c2)c1=O [Example 16, N^3-Methyl-1-(3-methylbenzyl)-2-oxo-N^5-(2-(piperidin-4-yl)ethyl)-1,2-dihydropyridine-3,5-dicarboxamide]	≤ 100 nM	–
CNC(=O)c1cc(C(=O)NCCCC2CCNCC2)cn([C@H](C)c2ccccc2)c1=O [Example 17, (R)-N^3-Methyl-2-oxo-1-(1-phenylethyl)-N^5-(3-(piperidin-4-yl)propyl)-1,2-dihydropyridine-3,5-dicarboxamide]	≤ 100 nM	–
CNC(=O)c1cc(C(=O)NCCC2CCNCC2)cn([C@H](C)c2ccccc2)c1=O [Example 18, (R)-N^3-Methyl-2-oxo-1-(1-phenylethyl)-N^5-(2-(piperidin-4-yl)ethyl)-1,2-dihydropyridine-3,5-dicarboxamide]	≤ 100 nM	–
CNC(=O)c1cc(C(=O)NCCCC2CCNCC2)cn(Cc2cccc(OC)c2)c1=O [Example 19, 1-(3-Methoxybenzyl)-N^3-methyl-2-oxo-N^5-(3-(piperidin-4-yl)propyl)-1,2-dihydropyridine-3,5-dicarboxamide]	≤ 100 nM	–
CNC(=O)c1cc(C(=O)NCCC2CCNCC2)cn(Cc2cccc(OC)c2)c1=O [Example 20, 1-(3-Methoxybenzyl)-N^3-methyl-2-oxo-N^5-(2-(piperidin-4-yl)ethyl)-1,2-dihydropyridine-3,5-dicarboxamide]	100 to 1000 nM	–
CNC(=O)c1cc(C(=O)NCCCC2CCNCC2)cn(Cc2ccc(F)c(C)c2)c1=O [Example 21, 1-(4-Fluoro-3-methylbenzyl)-N^3-methyl-2-oxo-N^5-(3-(piperidin-4-yl)propyl)-1,2-dihydropyridine-3,5-dicarboxamide]	≤ 100 nM	–
CNC(=O)c1cc(C(=O)NCCCC2CCNCC2)cn(Cc2ccc(F)cc2)c1=O [Example 22, 1-(4-Fluorobenzyl)-N^3-methyl-2-oxo-N-(3-(piperidin-4-1)propyl)-1,2-dihydropyridine-3,5-dicarboxamide]	≤ 100 nM	–
CNC(=O)c1cc(C(=O)NCCCC2CCNCC2)cn(Cc2cccc(OCCO)c2)c1=O [Example 23, 1-(3-(2-Hydroxyethoxy)benzyl)-N^3-methyl-2-oxo-N^5-(3-(piperidin-4-yl)propyl)-1,2-dihydropyridine-3,5-dicarboxamide]	≤ 100 nM	50.1 nM
CNC(=O)c1cc(C(=O)NCCC2CCNCC2)cn(Cc2cccc(OCCO)c2)c1=O [Example 24, 1-(3-(2-Hydroxyethoxy)benzyl)-N^3-methyl-2-oxo-N^5-(2-(piperidin-4-yl)ethyl)-1,2-dihydropyridine-3,5-dicarboxamide]	≤ 100 nM	–
CNC(=O)c1cc(C(=O)NCCCC2CCNCC2)cn(Cc2cccc(C)c2F)c1=O [Example 26, 1-(2-Fluoro-3-methylbenzyl)-N^3-methyl-2-oxo-N^5-(3-(piperidin-4-yl)propyl)-1,2-dihydropyridine-3,5-dicarboxamide]	≤ 100 nM	–
CNC(=O)c1cc(C(=O)NCCC2CCNCC2)cn(Cc2cccc(C)c2F)c1=O [Example 27, 1-(2-Fluoro-3-methylbenzyl)-N^3-methyl-2-oxo-N^5-(2-(piperidin-4-yl)ethyl)-1,2-dihydropyridine-3,5-dicarboxamide]	100 to 1000 nM	–
CNC(=O)c1cc(C(=O)NCCCC2CCNCC2)cn(Cc2cccc3[nH]ccc23)c1=O [Example 30, 1-((1H-Indol-4-yl)methyl)-N^3-methyl-2-oxo-N^5-(3-(piperidin-4-yl)propyl)-1,2-dihydropyridine-3,5-dicarboxamide]	≤ 100 nM	10 nM
CNC(=O)c1cc(C(=O)NCCC2CCCOC2)cn(Cc2ccccc2)c1=O (stereo not shown) [Example 31, 1-Benzyl-N^3-methyl-2-oxo-N^5-(2-(tetrahydro-2H-pyran-3-yl)ethyl)-1,2-dihydropyridine-3,5-dicarboxamide]	100 to 1000 nM	–
CNC(=O)c1cc(C(=O)NC2CNC2)cn(Cc2ccccc2)c1=O [Example 33, N^5-(Azetidin-3-l)-1-benzyl-N^3-methyl-2-oxo-1,2-dihydropyridine-3,5-dicarboxamide]	100 to 1000 nM	–
CNC(=O)c1cc(C(=O)NC2CN(C)C2)cn(Cc2ccccc2)c1=O [Example 34, 1-Benzyl-N^3-methyl-N^5-(1-methylazetidin-3-yl)-2-oxo-1,2-dihdyropyridine-3,5-dicarboxamide]	1000 to 100000 nM	–
CNC(=O)c1cc(C(=O)NC2CC3OCCCC23)cn(Cc2ccccc2)c1=O (stereo not shown) [Example 35, 1-Benzyl-N^5-(2-oxabicyclo[4.2.0]octan-7-yl)-N^3-methyl-2-oxo-1,2-dihydropyridine-3,5-dicarboxamide]	1000 to 100000 nM	–
CNC(=O)c1cc(C(=O)NCCC2CCCN(C(=O)OC(C)(C)C)C2)cn(Cc2ccccc2)c1=O (stereo not shown) [Example 38, tert-Butyl 3-(2-(1-benzyl-5-(methylcarbamoyl)-6-oxo-1,6-dihydropyridine-3-carboxamido)ethyl)piperidine-1-carbxylate]	1000 to 100000 nM	–

The next lines start with the values.

IC50 [1]	IC50 [2]	SMILES
≤ 100 nM	–	CNC(=O)c1cc(C(=O)NCCC2CCNCC2)cn(Cc2ccccc2)c1=O [Example 2, 1-Benzyl-N^3-methyl-2-oxo-N^5-(2-(piperidin-4-yl)ethyl)-1,2-dihydropyridine-3,5-dicarboxamide]
≤ 100 nM	–	CNC(=O)c1cc(C(=O)NCCC2CCN(C)CC2)cn(Cc2ccccc2)c1=O [Example 3, 1-Benzyl-N^3-methyl-N^5-(2-(1-methylpiperidin-4-yl)ethyl)-2-oxo-1,2-dihydropyridine-3,5-dicarboxamide]
100 to 1000 nM	–	CNC(=O)c1cc(C(=O)NCCCC2CCN(C(=O)OC(C)(C)C)CC2)cn(Cc2ccccc2)c1=O [Example 5]
≤ 100 nM	31.6 nM	CNC(=O)c1cc(C(=O)NCCCC2CCNCC2)cn(Cc2ccccc2)c1=O [Example 6a, 1-Benzyl-N^3-methyl-2-oxo-N^5-(3-(piperidin-4-yl)propyl)-1,2-dihydropyridine-3,5-dicarboxamide]
≤ 100 nM	31.6 nM	CNC(=O)c1cc(C(=O)NCCCC2CCN(C)CC2)cn(Cc2ccccc2)c1=O [Example 7, 1-Benzyl-N^3-methyl-N^5-(3-(1-methylpiperidin-4-yl)propyl)-2-oxo-1,2-dihydropyridine-3,5-dicarboxamide]
100 to 1000 nM	–	CNC(=O)c1cc(C(=O)NCCCC2CCN(C(C)=O)CC2)cn(Cc2ccccc2)c1=O [Example 8, N^5-(3-(1-Acetylpiperidin-4-yl)propyl)-1-benzyl-N^3-methyl-2-oxo-1,2-dihydropyridine-3,5-dicarboxamide]
100 to 1000 nM	–	CNC(=O)c1cc(C(=O)NCCC2CCOC2)cn(Cc2ccccc2)c1=O (stereo not shown) [Example 9, 1-Benzyl-N^3-methyl-2-oxo-N^5-(2-(tetrahydrofuran-3-yl)ethyl)-1,2-dihydropyridine-3,5-dicarboxamide]
≤ 100 nM	–	CNC(=O)c1cc(C(=O)NCCCC2CCN(CC(F)(F)F)CC2)cn(Cc2ccccc2)c1=O [Example 10]
≤ 100 nM	–	CCN1CCC(CCCNC(=O)c2cc(C(=O)NC)c(=O)n(Cc3ccccc3)c2)CC1 [Example 11, 1-Benzyl-N^5-(3-(1-ethylpiperidin-4-yl)propyl)-N^3-methyl-2-oxo-1,2-dihydropyridine-3,5-dicarboxamide]
≤ 100 nM	–	CNC(=O)c1cc(C(=O)NCCCN2CCNCC2)cn(Cc2ccccc2)c1=O [Example 12, 1-Benzyl-N^3-methyl-2-oxo-N^5-(3-(piperazin-1-yl)propyl)-1,2-dihydropyridine-3,5-dicarboxamide, hydrochloride]
100 to 1000 nM	–	CNC(=O)c1cc(C(=O)NCCC2CCS(=O)(=O)CC2)cn(Cc2ccccc2)c1=O [Example 13, 1-Benzyl-N^5-(2-(1,1-dioxidotetrahydro-2H-thiopyran-4-yl)ethyl)-N^3-methyl-2-oxo-1,2-dihydropyridine-3,5-dicarboxamide]
≤ 100 nM	39.8 nM	CNC(=O)c1cc(C(=O)NCCCC2CCN(CCO)CC2)cn(Cc2ccccc2)c1=O [Example 25]
≤ 100 nM	–	CNC(=O)c1cc(C(=O)NCCCC2CCN(CC(F)F)CC2)cn(Cc2ccccc2)c1=O [Example 28]
≤ 100 nM	25.1 nM	CNC(=O)c1cc(C(=O)NCCCC2CCN(CCF)CC2)cn(Cc2ccccc2)c1=O [Example 29, 1-Benzyl-N^5-(3-(1-(2-fluoroethyl)piperidin-4-yl)propyl)-N^3-methyl-2-oxo-1,2-dihydropyridine-3,5-dicarboxamide. formic acid salt]
100 to 1000 nM	–	CNC(=O)c1cc(C(=O)NCCC2CCN(C(=O)OC(C)(C)C)CC2)cn(Cc2ccccc2)c1=O [Example 32, tert-Butyl 4-(2-(1-benzyl-5-(methylcarbamoyl)-6-oxo-1,6-dihydropyridine-3-carboxamido)ethyl)piperidine-1-carboxylate]
100 to 1000 nM	–	CNC(=O)c1cc(C(=O)NCCC2CCN(C)C2)cn(Cc2ccccc2)c1=O (stereo not shown) [Example 36, 1-Benzyl-N^3-methyl-N^5-(2-(1-methylpyrrolidin-3-yl)ethyl)-2-oxo-1,2-dihydropyridine-3,5-dicarboxamide]
100 to 1000 nM	–	CNC(=O)c1cc(C(=O)NCCCN2CCOCC2)cn(Cc2ccccc2)c1=O [Example 37, 1-Benzyl-N^3-methyl-N^5-(3-morpholinopropyl)-2-oxo-1,2-dihydropyridine-3,5-dicarboxamide]
